Target: T1, NO synthase (Rattus norvegicus, UniProt P29476)
T1 construct: the tissue was broken down with a Polytron homogenizer for 1 min at 6,000 rpm; from tissue; host or cells: rat cerebellum, 20,000 g supernatant of homogenate
Assay: HTS NO synthase assay
Type: biochemical
Conditions: enzyme preparation from rat cerebelli, [3H]arginine substrate
Description: This assay allows the determination of the percentage inhibition of NO synthase by a compound of formula I according to the invention by measurement of the NO synthase activity in the presence of the compound. In this procedure, NO synthase is mixed together with radioactively labelled arginine and the particular compound of formula I under suitable conditions. After interruption of the NO formation reaction at a given point in time, the amount of unreacted arginine is determined directly or indirectly. […]
In this HTS NO synthase assay, radioactive arginine is used as the substrate. […] With the aid of this procedure, the arginine substrate which remains is bonded to the cation exchanger, while the radioactive citrulline formed enzymatically is washed out quantitatively. After drying of the filter MTP and addition of scintillation liquid, the bound arginine can be counted on a scintillation counter. An NO synthase reaction which has not been inhibited is reflected in a low radioactivity. […] That is to say a high radioactivity is found on the filter. […]
The plate was then dried for 1 hour at 60° C. in a drying cabinet. […] After a waiting time of 1 hour, the plate was measured on a β-counter.

With `Cc1ccn2c(N)c(-c3ccsc3)nc2c1` [Example 1, 7-Methyl-2-thiophen-3-yl-imidazo[1,2-a]pyridin-3-ylamine] as the compound, how does the inhibition at 10 µM read?
Its inhibition at 10 µM is 89%.
